Measurements from patent publication US7435834B2, “2-thia-dibenzoazulenes as inhibitors of tumour necrosis factor production and intermediates for the preparation thereof” (GlaxoSmithKline Istrazivacki Center Zagreb D.O.O., priority 2002, dated 2008).

Test system: TNF-α and IL-1 secretion
Assay: investigated assays, not specified which (TNF-α/IL-1 secretion in human PBMC and mouse peritoneal macrophages in vitro, LPS-induced TNF-α/IL-1 secretion in mice, writhing assay, LPS-induced shock in mice)
Conditions: assays not named; active means: IC50 20 μM or lower (human PBMC), IC50 10 μM or lower (mouse macrophages), 30% or more TNF-α inhibition at 10 mg/kg, analgetic activity as acetylsalicylic acid or better, survival 40% or more at 30 mg/kg
Experimental: The inhibitory action of the present compounds upon TNF-α and IL-1 secretion was determined by the following in vitro and in vivo experiments:
Determination of TNF-α and IL-1 Secretion in Human Peripheral Blood Mononuclear Cells in vitro
Human peripheral blood mononuclear cells (PBMC) were prepared from heparinized whole blood after separating PBMC on Ficoll-Paque™Plus (Amersham-Pharmacia). […] The IL-1 level was determined in an assay under the same conditions and with the same number of cells and the same concentration of stimuli stimulus by ELISA procedure (R&D Systems). The percentage of inhibition of TNF-α or IL-1 production was calculated by the equation: % inhibition=[1−(TS−NC)/(PC−NC)]*100. […]
In order to obtain peritoneal macrophages, Balb/C mouse strain males, age 8 to 12 weeks, were injected i.p. with 300 μg of zymosan (SIGMA) dissolved in a phosphate buffer (PBS) in a total volume of 0.1 ml/mouse. […] The TNF-α level in the cell supernatant was determined by ELISA procedure (R&D Systems, Biosource). The IL-1 level was determined in an assay identical to the assay for TNF-α by ELISA procedure (R&D Systems). The percentage of inhibition of TNF-α or IL-1 production was calculated by the equation: % inhibition=[1−(TS−NC)/(PC−NC)]*100. […]

Q: How did the “activity in investigated assays” value turn out when `O=Cc1scc2c1-c1ccccc1Sc1ccccc1-2` [Example 14, 2,8-Dithia-dibenzo[e,h]azulene-1-carbaldehyde] was run?
A: Its value is “activity in at least two investigated assays”.
